Among the data in US20240166652A1, “MODULATORS OF THE INTEGRATED STRESS PATHWAY” (Calico Life Sciences LLC, priority 2017, published 2024) are EC50 values, retold here.

This experiment has as its system ATF4 luciferase reporter in HEK293T cells. The experiment is described as follows: ATF4-Luc assay (ATF4 luciferase reporter, tunicamycin-treated HEK293T cells). The class given is cell-based, human. The settings on record: Homo sapiens, HEK-293T; HEK293T cells carrying the ATF4 luciferase reporter, 1 μg/mL tunicamycin, 7 hours. (In general: Reporter assays use an easily measured gene product as a stand-in for the process of interest.)
Broadly, the EC50 is the midpoint of the concentration-response curve. `O=C(COc1ccc(OC(F)(F)F)c(F)c1)NC12CCC(NC(=O)COc3ccc(Cl)cc3)(CC1)[C@@H](O)C2` [Compound 759, 2-(4-chlorophenoxy)-N-[(2S)-4-{2-[3-fluoro-4-(trifluoromethoxy)phenoxy]acetamido}-2-hydroxybicyclo[2.2.2]octan-1-yl]acetamide]: the EC50 is under 10 nM. For `O=C(COc1ccc(OC(F)(F)F)c(F)c1)NC12CCC(NC(=O)COc3ccc4c(c3)OC(F)(F)O4)(CC1)[C@@H](O)C2` [Compound 760, 2-[(2,2-difluoro-2H-1,3-benzodioxol-5-yl)oxy]-N-[(2S)-4-{2-[3-fluoro-4-(trifluoromethoxy)phenoxy]acetamido}-2-hydroxybicyclo[2.2.2]octan-1-yl]acetamide], the concentration giving a half-maximal response (EC50) is under 10 nM. For the compound `O=C(COc1ccc(OC(F)(F)F)c(F)c1)NC12CCC(NC(=O)COc3ccc(Cl)c(F)c3)(CC1)[C@@H](O)C2` [Compound 761, 2-(4-chloro-3-fluorophenoxy)-N-[(2S)-4-{2-[3-fluoro-4-(trifluoromethoxy)phenoxy]acetamido}-2-hydroxybicyclo[2.2.2]octan-1-yl]acetamide], the EC50 was under 10 nM.

For the compound `O=C(COc1ccc(OC(F)(F)F)c(F)c1)NC12CCC(NC(=O)COc3ccc(F)cc3)(CC1)[C@@H](O)C2` [Compound 762, 2-(4-fluorophenoxy)-N-[(2S)-4-{2-[3-fluoro-4-(trifluoromethoxy)phenoxy]acetamido}-2-hydroxybicyclo[2.2.2]octan-1-yl]acetamide], the EC50 is under 10 nM. The same measure for `O=C(COc1ccc(OC(F)(F)F)c(F)c1)NC12CCC(NC(=O)COc3ccc(F)c(F)c3)(CC1)[C@@H](O)C2` [Compound 763, 2-(3,4-difluorophenoxy)-N-[(2S)-4-{2-[3-fluoro-4-(trifluoromethoxy)phenoxy]acetamido}-2-hydroxybicyclo[2.2.2]octan-1-yl]acetamide]: under 10 nM; for `O=C(COc1ccc(OC(F)(F)F)c(F)c1)NC12CCC(NC(=O)COc3ccc(OC(F)(F)F)cc3)(CC1)[C@@H](O)C2` [Compound 764, 2-[3-fluoro-4-(trifluoromethoxy)phenoxy]-N-[(3S)-3-hydroxy-4-{2-[4-(trifluoromethoxy)phenoxy]acetamido}bicyclo[2.2.2]octan-1-yl]acetamide]: 10 to 50 nM; for `CS(=O)(=O)c1ccc(OCC(=O)NC23CCC(NC(=O)COc4ccc(OC(F)(F)F)cc4)(CC2)[C@@H](O)C3)cc1F` [Compound 765, 2-[3-fluoro-4-(methanesulfonyl)phenoxy]-N-[(3S)-3-hydroxy-4-{2-[4-(trifluoromethoxy)phenoxy]acetamido}bicyclo[2.2.2]octan-1-yl]acetamide]: 250 to 500 nM. `CS(=O)(=O)c1ccc(OCC(=O)NC23CCC(NC(=O)COc4ccc5c(c4)OC(F)(F)O5)(CC2)[C@@H](O)C3)cc1F` [Compound 766, 2-[(2,2-difluoro-2H-1,3-benzodioxol-5-yl)oxy]-N-[(2S)-4-{2-[3-fluoro-4-(methanesulfonyl)phenoxy]acetamido}-2-hydroxybicyclo[2.2.2]octan-1-yl]acetamide]: the EC50 was in the range of 50 to 250 nM. For `CS(=O)(=O)c1ccc(OCC(=O)NC23CCC(NC(=O)COc4ccc(F)cc4)(CC2)[C@@H](O)C3)cc1F` [Compound 767, 2-[3-fluoro-4-(methanesulfonyl)phenoxy]-N-{(3S)-4-[2-(4-fluorophenoxy)acetamido]-3-hydroxybicyclo[2.2.2]octan-1-yl}acetamide], the EC50 was in the range of 250 to 500 nM. `CS(=O)(=O)c1ccc(OCC(=O)NC23CCC(NC(=O)COc4ccc(F)c(F)c4)(CC2)[C@@H](O)C3)cc1F` [Compound 768, 2-(3,4-difluorophenoxy)-N-[(2S)-4-{2-[3-fluoro-4-(methanesulfonyl)phenoxy]acetamido}-2-hydroxybicyclo[2.2.2]octan-1-yl]acetamide]: the EC50 is 50 to 250 nM. The same measure for `CS(=O)(=O)c1ccc(OCC(=O)NC23CCC(NC(=O)COc4ccc(Cl)c(F)c4)(CC2)[C@@H](O)C3)cc1F` [Compound 769, 2-(4-chloro-3-fluorophenoxy)-N-[(2S)-4-{2-[3-fluoro-4-(methanesulfonyl)phenoxy]acetamido}-2-hydroxybicyclo[2.2.2]octan-1-yl]acetamide]: 10 to 50 nM; for `COc1cc(OCC(=O)NC23CCC(NC(=O)COc4ccc(F)c(F)c4)(CC2)C[C@@H]3O)ccc1F` [Compound 770, 2-(3,4-difluorophenoxy)-N-{(3S)-4-[2-(4-fluoro-3-methoxyphenoxy)acetamido]-3-hydroxybicyclo[2.2.2]octan-1-yl}acetamide]: under 10 nM; for `COc1cc(OCC(=O)NC23CCC(NC(=O)COc4ccc(Cl)c(F)c4)(CC2)C[C@@H]3O)ccc1F` [Compound 771, 2-(4-chloro-3-fluorophenoxy)-N-{(3S)-4-[2-(4-fluoro-3-methoxyphenoxy)acetamido]-3-hydroxybicyclo[2.2.2]octan-1-yl}acetamide]: under 10 nM. The same measure for `O=C(COc1ccc(Cl)c(F)c1)NC12CCC(NC(=O)COc3ccc(F)c(OC(F)(F)F)c3)(CC1)[C@@H](O)C2` [Compound 772, 2-(4-chloro-3-fluorophenoxy)-N-[(3S)-4-{2-[4-fluoro-3-(trifluoromethoxy)phenoxy]acetamido}-3-hydroxybicyclo[2.2.2]octan-1-yl]acetamide]: under 10 nM. With `O=C(COc1ccc(C(F)(F)F)c(F)c1)NC12CCC(NC(=O)COc3ccc4c(c3)OC(F)(F)O4)(CC1)[C@@H](O)C2` [Compound 773, 2-[(2,2-difluoro-2H-1,3-benzodioxol-5-yl)oxy]-N-[(2S)-4-{2-[3-fluoro-4-(trifluoromethyl)phenoxy]acetamido}-2-hydroxybicyclo[2.2.2]octan-1-yl]acetamide] the figure was under 10 nM; with `O=C(COc1ccc(F)c(C(F)F)c1)NC12CCC(NC(=O)COc3ccc(Cl)cc3)(CC1)[C@@H](O)C2` [Compound 774, 2-(4-chlorophenoxy)-N-[(2S)-4-{2-[3-(difluoromethyl)-4-fluorophenoxy]acetamido}-2-hydroxybicyclo[2.2.2]octan-1-yl]acetamide], under 10 nM; with `O=C(COc1ccc(F)c(C(F)F)c1)NC12CCC(NC(=O)COc3ccc(F)c(F)c3)(CC1)[C@@H](O)C2` [Compound 775, 2-[3-(difluoromethyl)-4-fluorophenoxy]-N-{(3S)-4-[2-(3,4-difluorophenoxy)acetamido]-3-hydroxybicyclo[2.2.2]octan-1-yl}acetamide], under 10 nM. For `COCc1ccccc1OCC(=O)NC12CCC(NC(=O)COc3ccc(Cl)c(F)c3)(CC1)[C@@H](O)C2` [Compound 776, 2-(4-chloro-3-fluorophenoxy)-N-[(2S)-2-hydroxy-4-{2-[2-(methoxymethyl)phenoxy]acetamido}bicyclo[2.2.2]octan-1-yl]acetamide], the EC50 is over 2000 nM. The same measure for `COCc1cccc(OCC(=O)NC23CCC(NC(=O)COc4ccc(Cl)c(F)c4)(CC2)[C@@H](O)C3)c1` [Compound 777, 2-(4-chloro-3-fluorophenoxy)-N-[(2S)-2-hydroxy-4-{2-[3-(methoxymethyl)phenoxy]acetamido}bicyclo[2.2.2]octan-1-yl]acetamide]: 10 to 50 nM; for `CCc1ccc(OCC(=O)NC23CCC(NC(=O)COc4ccc(F)c(F)c4)(CC2)[C@@H](O)C3)cc1` [Compound 778, 2-(3,4-difluorophenoxy)-N-{(2S)-4-[2-(4-ethylphenoxy)acetamido]-2-hydroxybicyclo[2.2.2]octan-1-yl}acetamide]: 10 to 50 nM.
